# Results as given in patent publication US8658638B2, “Mineralocorticoid receptor antagonist and methods of use” (priority 2009, dated 2014).
# What was measured:
# [1] = test system: uni-nephrectomized Sprague Dawley rats; experiment: In vivo model of aldosterone mediated renal disease; conditions: 10 mg/kg/day x 28 days, oral gavage, aldosterone infusion, 6% salt diet, rat
# Experimental: Male uni-nephrectomized Sprague Dawley rats (240-280 g) are housed individually with ad lib house water and rodent 5001 diet for one week. After acclimation, baseline 24 h urine samples are collected and analyzed for total urine protein and creatinine. Animals are randomized via body weight and baseline urine protein into study groups. Baseline serum is taken by tail-clip and analyzed for blood urea nitrogen (BUN), creatinine, and electrolytes. After baseline samples are taken, all rats with the exception of the control group are maintained on a diet containing 6% salt, and drinking water containing 0.3% KCl throughout the study duration. […] Alza mini-pumps to deliver 2.5 μl/h×28 days of d-aldosterone in 0.01% DMSO at 0.75 μg/h, s.c. are implanted in non-control animals (e.g Test Compound group and Vehicle only group) under isoflourane anesthesia. Test compound, in a vehicle comprising 1% carboxy methylcellulose (CMC)/0.25% polysorbate 80, or vehicle alone, is then administered by once daily oral gavage (10 mL/kg) beginning the day after aldosterone implantation. Repeat urine samples are collected after 2 and 4 weeks of compound or vehicle alone administration and analyzed for total urine protein and creatinine. At study termination, pharmacokinetic samples are obtained at 8 timepoints (0.5, 1, 2, 3, 6, 8, 12 and 24 h). […]
# [2] = test system: adrenalectomized Sprague Dawley rats; experiment: In vivo assay of electrolyte modulation; conditions: 30 mg/kg p.o., aldosterone 3 μg/kg s.c., urine collected 5 hours after dose, rat
# Experimental: Male Sprague Dawley rats (240-280 g) are adrenalectomized then maintained on 5001 rodent chow and 1% NaCl drinking solution for 6 days after surgery. Animals are then fasted overnight and 1% saline drinking water is replaced with house water ad lib. The morning of the study, fasted animals are randomized to treatment on the basis of fasted body weight. Control animals (e.g. those that receive no aldosterone or test compound) are given 10 mL/kg of test compound vehicle comprising 0.5% CMC/0.25% polysorbate 80/2.7% NaCl by oral gavage, and 1 mL/kg of aldosterone vehicle (0.01% DMSO/water) by subcutaneous injection. Vehicle animals are given the same test compound vehicle by oral gavage and aldosterone 3 μg/kg, s.c. Test substances are suspended in the carboxy methylcellulose/NaCl vehicle. The test compound treatment groups receive test substance suspended in the carboxy methylcellulose/NaCl vehicle and aldosterone 3 μg/kg s.c. Immediately after dosing, animals are placed in metabolic racks with ad lib access to house water. Urine samples are collected 5 hours after dose administration and electrolyte excretion is assayed. Data are presented as log Na/K excretion ratio or % of Na/K ratio with respect to adrenalectomized vehicle treated animals. […]
smiles,measurement,setting,value
"O=c1[nH]c2cc(/C=C3\c4ccccc4COc4cc(F)ccc43)ccc2n1[C@@H]1C[C@@H]2COCCN2C1 [Compound (I), 5-((E)-(3-fluorodibenzo[b,e]oxepin-11(6H)-ylidene)methyl)-1-((7R,8aR)-hexahydro-1H-pyrrolo[2,1-c][1,4]oxazin-7-yl)-1H-benzo[d]imidazol-2(3H)-one]",reduction of urinary protein excretion compared to vehicle treated animals,[1],about 60%
same,increase of urinary Na/K excretion ratio compared to vehicle treated animals,[2],about 30%
